In patent US20140271485A1, “USE OF COELENTERAZINE FOR IMAGING INSULIN-GENERATING BETA-CELLS” (The Board of Trustees of the Leland Stanford Junior …, priority 2013, published 2014):
“Also recorded” adds a separate entry of the source.

Columns and labels:
[1] = system: rat insulinoma cell lines (RIN5F β-cell line); test: In vitro bioluminescence imaging of cell lines with coelenterazine (cell plate assay); assay type: cell-based
Description: FIG. 1A is a digital image illustrating a cell plate assay. 10^5 cells of each cell line were washed two times in serum-free RPMI and plated in a 96-well black plate. Coelenterazine was added to a final concentration of 10 μM and the plate imaged. RIN5F is a β-cell line and the remainder are control cell lines.
FIG. 1B is a graph illustrating the quantification of the bioluminescence signals of FIG. 1A. Error bars represent the standard error.
In vitro experiments for the imaging cell lines may be completed on the day of cell collection or following incubation. If imaging is performed following prolonged incubation combined with comparisons between dissimilar cell lines, it is important to consider the likelihood of there being a different division rate for each cell line.
For same-day imaging, the cells are collected by a method dictated by the particular cell line. Cells are washed twice in imaging buffer by repeated resuspension and centrifugation (a variety of buffers have proven effective, including: PBS, DPBS and Krebs). […] The desired concentration of cells is added to an imaging plate.
Coelenterazine is resuspended to a concentration of about 1-10 mg/mL in 100% ethanol and then diluted in imaging buffer to achieve the desired imaging concentration. […]
The coelenterazine is added to wells to be imaged and the signal detected using a bioluminescence detection system such as an IVIS. […]

pancreas = test: Ex vivo bioluminescence imaging of excised tissues with coelenterazine; parameters: species or system mice; conditions: ex vivo imaging of excised mouse tissues; significance P<0.05
Description: FIG. 2A is a digital image illustrating bioluminescence images of excised tissues from 3 mice in 1 mL PBS with 20 μg coelenterazine and imaged immediately.
Error bars represent the standard error and significance is defined as P<0.05.

[2] = system: β-cell mass (pancreatic signal); test: In vivo bioluminescence imaging of beta cell mass after intravenous coelenterazine; parameters: species or system mice
Description: FIG. 3A is a digital image, for the in vivo characterization of a coelenterazine (CTZ) pancreatic signal, showing the bioluminescence imaging of mice that were fasted for 6 h or received 2 g/kg intraperitoneal glucose and maintained on 10% sucrose water for 4 h. Mice then received 40 μg CTZ intravenously and were imaged immediately. FIG. 3C is a digital image, for the in vivo characterization of a coelenterazine (CTZ) pancreatic signal, showing the bioluminescence imaging of mice treated with glucose followed by administration of 0.56, 1.4, or 3.5 mg/kg CTZ intravenously. FIG. 3D is a graph illustrating the quantification of the signal detected in FIG. 3C at 1 min intervals following CTZ injection. […] A standardized anesthetic protocol with a defined anesthetic dose and induction period (if using inhalant anesthetics) is also required. Coelenterazine is prepared at a concentration of 10 mg/mL in 100% ethanol. The coelenterazine may be further diluted in a pharmaceutically acceptable carrier selected as suitable for injection into an animal subject for imaging. […] It is important to protect the imaging solution from light and that is prepared immediately prior to use. Following anesthetic induction, the imaging solution is intravenously administered at a dose of about 1-10 mg/kg and imaging is begun immediately in using an in vivo bioluminescence imaging system.

[3] = system: β-cell mass (pancreatic signal); test: Streptozotocin-induced diabetic mouse model, coelenterazine imaging of pancreas; assay type: in vivo, mice
Description: FIGS. 4A-4D illustrate the results from a streptozotocin-induced diabetic mouse model. Mice were treated with 200 mg/kg of streptozotocin (STZ) or PBS on day 0.
Top Panel: 3-days post-treatment, mice were administered 2 g/kg glucose and maintained on 10% sucrose water. Four h later, mice were intravenously injected with 1.4 mg/kg of coelenterazine and imaged. Bottom panel: Bioluminescence imaging of the excised pancreases collected from the mice depicted in top panel.
To conclusively determine the β-cell specificity of the signal, coelenterazine was used to image the pancreas of mice that received the β-cell toxic agent streptozotocin (STZ) versus a Phosphate-Buffered Saline (PBS) control in which the β-cells were functional.

O=c1c(Cc2ccc(O)cc2)nc2c(Cc3ccccc3)[nH]c(-c3ccc(O)cc3)cn1-2 [coelenterazine, 6-(4-hydroxyphenyl)-2-[(4-hydroxyphenyl)methyl]-8-(phenylmethyl)-7H-imidazo[3,2-a]pyrazin-3-one]
coelenterazine-dependent bioluminescence signal of rat insulinoma cell lines relative to other cell lines ([1]; in the absence of any additional reagents): greater coelenterazine-dependent bioluminescence signal relative to other cell lines
time to stable maximum of signal following coelenterazine addition ([1]; in vitro, cells in imaging buffer): 15 to 45 min
bioluminescence signal of pancreas compared to other tissues (pancreas): Significantly greater signals were detected from the pancreas compared to all other tissues; also recorded: significantly elevated pancreatic signal compared to other examined non-insulin-producing tissues
time of maximum pancreatic signal intensity post-injection ([2]; intravenous, about 1-10 mg/kg): 2 to 5 min
signal of insulin-secreting β-cells compared to cells quiescent due to fasting ([2]; mice, glucose-treated vs fasted): insulin-secreting β-cells produced a greater signal
dose dependence of detectable signal intensity ([2]; mice, intravenous): dose-dependent
location of bioluminescence signal upon intravenous injection ([2]; mice, intravenous): pancreatic-specific bioluminescent signal; also recorded: a mid-upper abdominal bioluminescence signal was detected
pancreatic signal in STZ-treated mice versus PBS control ([3]; STZ 200 mg/kg day 0, imaging 3 days post-treatment, in vivo and ex vivo pancreas): significant difference (P=0.0000); also recorded: reduced in type I diabetic mice; also recorded: significant reduction in pancreatic signal in STZ-treated mice
correlation between pancreatic signal and blood glucose ([3]; STZ and PBS mice): correlation was significant (P=0.0317); also recorded: significant and inverse correlation

CN(N=O)C(=O)N[C@H]1C(O)O[C@H](CO)[C@@H](O)[C@@H]1O (mixture of isomers) [streptozotocin]
blood glucose values, STZ versus PBS ([3]; 200 mg/kg STZ on day 0, measured on day 3): difference (P=0.0265)
